Like-named read-outs stand apart in the source and are kept apart here.
Assays:
T289C mAb = assay: Conjugation kinetics of x-maleimide-PEG-biotins with T289C mAb; type: physicochemical; settings: for Second order rate constant (k2): conjugation to T289C mAb
Description: x-Maleimide-PEG-biotins were conjugated to mAb (comprising a T289C mutation of the Fc) in several steps. […] Reduced mAb was transferred to a slide-a-lizer dialysis cassette (10K MWCO) and dialyzed against PBS, 1 mM EDTA, pH 7.2-7.8, 4° C. for 24 hr with several buffer changes. Reduced mAb was oxidized to reform internal disulfides by addition of dehydroascorbic acid (21 μL of 50 mM stock in DMSO, 1.1 μmol, 20 eq) followed by gentle mixing for 4 hr at room temperature. Oxidized mAb solution was adjusted to the desired pH by addition of 1M sodium phosphate (monobasic for pH 5.5, dibasic for pH 8.6, or a stock adjusted to pH 7.4) to a final phosphate concentration of 100 mM and mAb concentration of 1.3 mg/mL. Next, 1.15 mL of mAb solution (1.5 mg, 10 nmol, 1 eq) was aliquoted into a vial followed by addition of x-maleimide-PEG-biotin stock solution (2 μL of a 10 mM stock solution in DMAc, 20 nmol, 2 eq). The reaction mixture was briefly vortexed and further incubated for the desired amount of time followed by addition of N-acetly cysteine (10 μL of a 100 mM solution in water, 1 μmol, 100 eq) and further incubation for 15 minutes to quench unreacted maleimide. All conjugation reactions were performed at room temperature (22° C.) under ambient atmosphere. Note that 2 eq x-maleimide-PEG-biotin relative to mAb=1 eq x-maleimide-PEG-biotin relative to free cysteine contained in the mAb. This general procedure was modified as needed to achieve desired reaction stoichiometry (i.e. different maleimide:mAb feeds).
ADC samples were analyzed using an Agilent 6520B Q-TOF mass spectrometer equipped with a RP-HPLC column (Agilent Poroshell 300SB-C3; 5 um, 2.1 mm×75 mm; Part#660750-909). High-performance liquid chromatography (HPLC) parameters were as follows: flow rate, 0.4 ml/min; mobile phase A was 0.1% (v/v) formic acid in HPLC-grade H2O, and mobile phase B was 0.1% (v/v) formic acid in acetonitrile. The column was equilibrated in 90% A/10% B, which was also used to desalt the ADC samples, followed by elution in 40% A/60% B. Mass spec data were collected for 100-3000 m/z, positive polarity, a gas temperature of 350° C., a nebulizer pressure of 48 lb/in^2, and a capillary voltage of 5,000 V. Data were analyzed using vendor-supplied (Agilent v.B.04.00) MassHunter Qualitative Analysis software and peak intensities from deconvoluted spectra were used to derive the relative proportion of reactants and products; and reaction kinetics.
Half-lives were calculated from the derived rate constants using Equation 4 for pseudo-first order reactions (hydrolysis and deconjugation) and Equation 5 for second-order reactions (conjugation): […]
Conjugation data were analyzed in units of molar concentration to determine kinetic constants. Second order rate constants were determined from the slopes of curves generated from plotting 1/[SH] versus time and linear regression analysis.

[1] = Maleimide hydrolysis kinetics (pre-incubation in buffer, then reaction with T289C mAb); type: physicochemical; settings: for half-life at 1 mM: sodium phosphate buffer, read-out: Hydrolysis T1/2 (maleimide) (converted)
Description: x-Maleimide-PEG-biotins were pre-incubated in buffer solutions of different pH to assess their stability and thiol conjugation efficiency over time. This assay indirectly monitors maleimide hydrolysis because hydrolyzed maleimides are not reactive towards thiols. Antibody bearing the T289C FC mutation was reduced and oxidized as described above and adjusted to 1.5 mg/mL in PBS containing 50 mM sodium phosphate pH 7.4. Maleimide solutions were prepared in buffer (100 mM sodium phosphate pH 5.5, 7.4, 8.6) by combining 20 μL x-maleimide-PEG-biotin solution (10 mM solution in DMAc) with 180 μL buffer at the desired pH (final x-maleimide-PEG-biotin concentration=1 mM) and incubated at 22° C. for determined time intervals prior to reaction with mAb. For conjugation reactions 267 μL mAb (1.5 mg/mL, 2.7 nmol, 1 eq) was combined with 5.3 μL buffer-incubated x-maleimide-PEG-biotin solution (5.4 nmol, 2 eq). […] The conjugation reaction proceeded at 22° C. for 1.5 hr at pH 7.4. After reaction samples were reduced with DTT at room temperature for 5 min and analyzed by mass spectrometry. Percent conjugation was calculated using equation 1.
Maleimide hydrolysis data were also analyzed in units of molar concentration to determine kinetic constants. Pseudo 1st order rate constants were determined from the slopes of curves generated from plotting ln [maleimide] versus time and linear regression analysis.

[2] = pH 7.0; cited from earlier work
[3] = pH 7.0; cited from earlier work; remark: listed apart in the source
[4] = cited from earlier work
[5] = BME challenge assay: sensitivity of PEG-biotin T289C mAb conjugates to thiol exchange in buffer containing thiols; type: physicochemical; settings: pH 7.2, 37° C.
Description: Biotin-mAb conjugates were incubated in aqueous buffer containing β-mercaptoethanol (BME) to challenge the thiosuccinimide linkage against deconjugation. x-Maleimide-PEG-biotins were conjugated to mAb containing the T289C mutation as described above with minor modification. Conjugation reactions were performed at 1 equivalent x-PEG-maleimide:thiol for 15 min at 22° C. followed immediately by dilution to 0.2 mg/mL (1.33 μM mAb) with 1×PBS pH 7.2 containing 0.5 mM EDTA. The N-acetyl cysteine quenching step was omitted. For BME-containing samples, BME was added to a final concentration of 1% v/v (143 mM). Samples were further incubated at 37° C. under ambient atmosphere without stirring. Aliquots were removed at various time points, sterile filtered, reduced with DTT and then analyzed by LC/MS. Percent conjugated mAb and thiosuccinimide hydrolysis were determined from peak heights of mass spectra using Equation 1 and Equation 2, respectively. Deconjugated mAb and thiosuccinimide hydrolysis data were plotted as ln [concentration] vs. time (s) to obtain the pseudo-first order rate constants from the slope of the bestfit line.

[6] = Stability of mAb-biotin conjugates in the presence of free thiol (BME) after mild hydrolysis; type: physicochemical; settings: pH 7.2, 37° C.
Description: Biotin-mAb conjugates were incubated in aqueous buffer containing β-mercaptoethanol (BME) to challenge the thiosuccinimide linkage against deconjugation. In this experiment, thiosuccinimide conjugates were subjected to a brief incubation at mildly basic conditions to facilitate thiosuccinimide hydrolysis before the stability challenge. x-Maleimide-PEG-biotins were conjugated to mAb containing the T289C mutation as described above with minor modification. Conjugation reactions were performed at 1 equivalent x-PEG-maleimide:thiol for 15 min at 22° C. followed quenching with N-acetyl cysteine (100 eq rel. to mAb) and further reaction for 5 minutes. Reaction mixtures were adjusted to pH 8.6 by addition of 10% v/v sodium phosphate (1M, dibasic) and then incubated at 37° C. for 1 hr. Reactions were then dialyzed against PBS (pH 7.2) containing 0.5 mM EDTA for 24 hr at 4° C. After dialysis, mAb concentrations were confirmed by A280 measurement (NanoDrop) and samples were diluted to 0.2 mg/mL (1.33 μM mAb) with 1×PBS pH 7.2 containing 0.5 mM EDTA. For BME-containing samples, BME was added to a final concentration of 1% v/v (143 mM). […] Aliquots were removed at various time points, sterile filtered, reduced with DTT and then analyzed by LC/MS. Percent conjugated mAb and thiosuccinimide hydrolysis was determined from peak heights of mass spectra using Equation 1 and Equation 2, respectively. […]

[7] = Reactivity of mAb-BCN conjugate with AC4GlcNAz after storage; type: physicochemical
Description: N-phenyl-maleimide-PEG-BCN-mAb conjugate (100 μL of 1.3, mg/mL solution in PBS with 0.5 mM EDTA, 0.87 nmol) was combined with AC4GlcNAz (1 μL of 500 mM stock in DMSO, 500 nmol). The reaction solution was incubated at room temperature without stirring for 1 hr at 22° C. For long-term reactivity studies, mAb-BCN conjugate was stored at 4° C. in PBS with 0.5 mM EDTA, pH 7.2 and aliquots were removed and reacted with AC4GlcNAz as described above. Conjugates were analyzed by reduced glycosylated mass spectrometry and conjugation efficiency was determined using equation 1.

[8] = Thiosuccinimide hydrolysis kinetics for PEG-BCN conjugates; type: physicochemical; settings: mAb-PEG-BCN conjugates at T289C, pH 7.2, 22° C.
Description: x-Maleimide-PEG-BCN-mAb conjugates were incubated in buffer solutions and monitored by LC/MS over time to observe thiosuccinimide hydrolysis. Conjugated T289C mAbs were diluted to 0.22 mg/mL with 1×PBS containing 0.5 mM EDTA, pH 7.2 and then dithiothreitol was added (0.5 M stock in water) to achieve a final concentration of 42 mM. Samples were placed into the LC/MS autosampler at 22° C. and injected periodically. Thiosuccinimide hydrolysis was confirmed by addition of 18 amu to the mAb conjugate peak in the mass spectrum. Semi-quantitative analysis of hydrolysis was performed using peak intensities in deconvoluted mass spectra and equation 3, which includes background subtraction using the T=0 measurement. Data was then converted into loss of thiosuccinimide (M) over time and plotted as ln [thiosuccinimide] vs seconds. The slope of the best fit line yielded the pseudo first-order rate constant for thiosuccinimide hydrolysis.

Row | Compound | Psuedo first order rate constant (kobs), maleimide hydrolysis ([1]; pH 7.4, 22° C.) [s⁻¹] | Psuedo first order rate constant (kobs), maleimide hydrolysis ([1]; pH 8.6, 22° C.) [s⁻¹] | half-life at 1 mM ([1]; pH 7.4, 22° C.) [h] | half-life at 1 mM ([1]; pH 8.6, 22° C.) [h] | Second order rate constant (k2) (T289C mAb; pH 5.5, 22° C.) [M⁻¹ s⁻¹] | Second order rate constant (k2) (T289C mAb; pH 7.4, 22° C.) [M⁻¹ s⁻¹] | Second order rate constant (k2) (T289C mAb; pH 8.6, 22° C.) [M⁻¹ s⁻¹] | other results
1 | 2-fluoro-5-maleimidophenyl-PEG7-biotin [F-phenyl maleimide-PEG-biotin] |  |  |  |  |  |  |  | thiol conjugation is complete in (T289C mAb; pH 8.6): 15 s
2 | O=C(CCCCC1SCC2NC(=O)NC21)NCCOCCOCCOCCOCCOCCOCCOCCNC(=O)CCN1C(=O)C=CC1=O (centres unmarked) [Alkyl maleimide-PEG-biotin, maleimidoproprionyl-PEG7-biotin, reference compound] | 2.3e-05 | 0.0002 | 7.7 | 1 | 13 | 500 | ~28000 | 
3 | O=C(CCCCC1SCC2NC(=O)NC21)NCCOCCOCCOCCOCCOCCOCCOCCNC(=O)c1cc(N2C(=O)C=CC2=O)ccc1F (centres unmarked) [F-phenyl maleimide-PEG-biotin, 2-fluoro-5-maleimidophenyl-PEG7-biotin] | 0.00017 | 0.0019 | 1.1 | 0.1 | 55.4 | 4500 | ~39000 | 
4 | CCN1C(=O)C=CC1=O [N-ethyl maleimide] |  |  |  |  |  |  |  | k2, reaction with cysteine [2]: 1620 M⁻¹ s⁻¹; k2, reaction with β-mercaptoethanol [3]: 710 M⁻¹ s⁻¹
5 | O=C1C=CC(=O)N1c1ccccc1 [N-phenyl maleimide] |  |  |  |  |  |  |  | kobs, hydrolysis ([4]; pH 7.6, 25° C.): 7e-05 s⁻¹
6 | O=C(CCCCC1SCC2NC(=O)NC21)NCCOCCOCCOCCOCCOCCOCCOCCNC(=O)Cc1ccc(N2C(=O)C=CC2=O)cc1 (centres unmarked) [Phenyl maleimide-PEG-biotin, maleimidophenylacetyl-PEG7-biotin] | 8.5e-05 | 0.00076 | 2.3 | 0.3 | 23.8 | 1300 | ~34000 | 
7 | O=C1C=CC(=O)N1 [maleimide] |  |  |  |  |  |  |  | kobs, hydrolysis ([4]; pH 8.38, 30° C.): 0.000151 s⁻¹
8 | N-fluorophenyl thiosuccinimide |  |  |  |  |  |  |  | Max deconjugation + BME ([5]; 1% v/v BME): 10%; Max deconjugation − BME ([5]; without BME): None; Max deconjugation + BME ([6]; 1% v/v BME): None; Max deconjugation − BME ([6]; without BME): None
9 | Phenyl thiosuccinimide |  |  |  |  |  |  |  | Azide conjugation (BCN reactivity) ([7]; 1 day storage at 4° C.): quantitative; Azide conjugation (BCN reactivity) ([7]; 4 days storage at 4° C.): quantitative; Azide conjugation (BCN reactivity) ([7]; 7 days storage at 4° C.): quantitative; Azide conjugation (BCN reactivity) ([7]; 10 days storage at 4° C.): quantitative; Azide conjugation (BCN reactivity) ([7]; 15 days storage at 4° C.): quantitative; Azide conjugation (BCN reactivity) ([7]; 21 days storage at 4° C.): quantitative; time without loss of BCN reactivity ([7]; after conjugation and storage at 4° C.): > 21 days; Psuedo first order rate constant (kobs), thiosuccinimide hydrolysis [8]: 1.9e-05 s⁻¹

Source: patent publication US20170304460A1, “METHOD OF CONJUGATING A POLYPEPTIDE” (MedImmune, LLC, priority 2014, published 2017)
